{"source": "patent US20100048634A1", "about": "“METHOD FOR TREATING APATHY SYNDROME” (priority 2005, published 2010)", "assay_type_in_all_cases": "in vivo, human", "key": {"[1]": {"tested_on": "post-stroke patients", "experiment": "Controlled clinical trial against placebo, symbol digit modality test (SDMT), cognitive function", "details": "for change in cognitive function (SDMT): at 4 weeks, placebo 3.2; for average improvement in cognitive function (SDMT): last visit, placebo 4.2; for improvement in the SDMT scale: patients with cortical strokes, week 12, placebo 2.7", "text": "Cognitive function can be measured using a tool called the symbol digit modality test (SDMT). In this test, patients have a legend which links each digit to a specific graphical, non-text symbol. The patients have a pre-specified, fixed period of time to match, in writing, as many digits to a list of symbols as possible. The number of correctly matched digits to symbols provides a measure of a range of cognitive functions, including executive function, attention, memory, and motor function (Joy, et.al. Arch Clin Neuropsychol. 19:759-67, 2004; Joy, et.al. Clin Neuropsychol. 17:182-94; 2003)\n(§1) In this trial, nefiracetam was administered orally to 103 post-stroke patients, who all have some degree of depression, for up to twelve weeks after the vascular event. Concurrently, 56 patients received placebo (placebo group). Of the 103 post-stroke patients treated with nefiracetam, 55 received 600 mg daily (600 mg group), and 48 received 900 mg daily (900 mg group). The three groups of patients were followed for up to 12 weeks, and evaluated at the end of week 4, the end of week 8, and the end of week 12, by measuring the Apathy Evaluation Scale (a symptom scale for measuring apathy), and by measuring SDMT (for measuring cognitive function)."}, "[2]": {"tested_on": "post-stroke patients having moderate to severe depression", "experiment": "Hamilton Rating Scale of Depression (HAM-D) in post-stroke patients having moderate to severe depression", "details": "600 or 900 mg/day oral; 12 weeks; consistent across various severity of baseline apathy", "text": "(§2) In 151 post-stroke patients having moderate to severe depression, the intervention-free data of Apathy Scale (AS), as a valid measure of apathy, and of Hamilton Rating Scale of Depression (HAM-D) and Beck Depression Inventory (BDI), as valid measures of depression, were collected and analyzed using the method of confirmatory factor analysis. HAM-D and BDI are fully validated and are widely used measures of the severity of depression. HAM-D (Hamilton, J Neurol. Neurosurg. Psychiatry. 23:56-62, 1960) is rated by a professional. BDI (Arch Gen Psychiatry. 4:561-571, 1961) is rated by a patient.\n(§3) The 151 patients, who were evaluated at least once after treatment, included the 103 patients studied in Example 1. The 151 patients were divided in three groups each orally receiving placebo (51 patients) or nefiracetam at 600 mg/day (54 patients) or nefiracetam at 900 mg/day (46 patients).\n(§4) The data at the end of 12 weeks were analyzed and summarized as follows: […]"}, "[3]": {"tested_on": "post-stroke patients having moderate to severe depression", "experiment": "Apathy Scale (AS) in post-stroke patients having moderate to severe depression", "details": "600 or 900 mg/day oral, 12 weeks, especially high dose", "text": "Apathy Scale (AS) is an abbreviated version of the AES. Items and scoring of Papthy Scale can be found, for example, at Starkstein, et al., J Neuropsychiatry Clin. Neurosciences, 4: 134-139 (1992).\nas §2, §3, §4"}, "[4]": {"tested_on": "post-stroke patients", "experiment": "Controlled clinical trial against placebo, Apathy Evaluation Scale", "procedure": "Apathy Evaluation Scale (AES) is used as a measure of apathy severity. Items and factor structure of AES are listed in Marin, et al. (Psychiatry Res. 1991; 38(2):143-62). The assessment, the impairment, as well as and the need of recovery of apathy and cognitive function after stroke are illustrated by Robert G. Robinson “The Clinical Neuropsychiatry of Stroke”, 1998, Cambridge University Press, pages 143, 222-225 and 292-293.\nas §1"}, "[5]": {"details": "600 and 900 mg daily oral, up to 12 weeks"}}}
{"smiles": "Cc1cccc(C)c1NC(=O)CN1CCCC1=O", "note": "[nefiracetam]", "values": [{"measurement": "change in cognitive function (SDMT)", "setting": "[1]; 600 mg daily oral", "result": 4.1, "unit": "point"}, {"measurement": "average improvement in cognitive function (SDMT)", "setting": "[1]; 600 mg daily oral", "result": 5.7, "unit": "points"}, {"measurement": "improvement in the SDMT scale", "setting": "[1]; 600 mg daily oral", "result": 7, "unit": "points"}, {"measurement": "change in cognitive function (SDMT)", "setting": "[1]; 900 mg daily oral", "result": 4.4, "unit": "point"}, {"measurement": "average improvement in cognitive function (SDMT)", "setting": "[1]; 900 mg daily oral", "result": 6.6, "unit": "points"}, {"measurement": "improvement in the SDMT scale", "setting": "[1]; 900 mg daily oral", "result": 14.2, "unit": "points"}, {"measurement": "improvements in cognitive function as measured by the SDMT (in words)", "setting": "[1]; [5]", "result": "dose-dependent and time-dependent improvements in cognitive function"}, {"measurement": "reduction in depression measured by HAM-D versus placebo (in words)", "setting": "[2]", "result": "patients on placebo showed slightly more reduction in depression than did patients on active treatment"}, {"measurement": "reduction in apathy measured by the Apathy Scale versus placebo (in words)", "setting": "[3]; consistent across moderate to severe and severe depression", "result": "more reduction in apathy than did patients on placebo"}, {"measurement": "reduction in apathy measured by the Apathy Scale versus placebo (in words)", "setting": "[3]; consistent across various severity of baseline apathy", "result": "more reduction in apathy than did patients on placebo"}, {"measurement": "improvement in apathy (Apathy Evaluation Scale)", "setting": "[4]; 600 mg daily oral, at 4 weeks, placebo 1.4", "result": 1.9, "unit": "point"}, {"measurement": "average improvement in apathy (Apathy Evaluation Scale)", "setting": "[4]; 600 mg daily oral, cortical stroke patients, last visit carried forward, placebo 1.0", "result": 3.4}, {"measurement": "improvement in apathy (Apathy Evaluation Scale)", "setting": "[4]; 600 mg daily oral, cortical strokes and significant baseline apathy (greater than 18), last visit, placebo 5.4", "result": 9.4, "unit": "points"}, {"measurement": "average improvement in apathy (Apathy Evaluation Scale)", "setting": "[4]; 600 mg daily oral, last visit (12 weeks), placebo 1.4", "result": 2.1, "unit": "points"}, {"measurement": "average improvement in apathy (Apathy Evaluation Scale)", "setting": "[4]; 600 mg daily oral, patients treated within 28 days of the stroke, placebo 0.6", "result": 1.3, "unit": "points"}, {"measurement": "improvement in apathy (Apathy Evaluation Scale)", "setting": "[4]; 900 mg daily oral, at 4 weeks, placebo 1.4", "result": 1.9, "unit": "point"}, {"measurement": "average improvement in apathy (Apathy Evaluation Scale)", "setting": "[4]; 900 mg daily oral, cortical stroke patients, last visit carried forward, placebo 1.0", "result": 5.2, "unit": "points"}, {"measurement": "improvement in apathy (Apathy Evaluation Scale)", "setting": "[4]; 900 mg daily oral, cortical strokes and significant baseline apathy (greater than 18), last visit, placebo 5.4", "result": 11.7, "unit": "points"}, {"measurement": "average improvement in apathy (Apathy Evaluation Scale)", "setting": "[4]; 900 mg daily oral, last visit (12 weeks), placebo 1.4", "result": 3.4, "unit": "points"}, {"measurement": "average improvement in apathy (Apathy Evaluation Scale)", "setting": "[4]; 900 mg daily oral, patients treated within 28 days of the stroke, placebo 0.6", "result": 6.1, "unit": "points"}, {"measurement": "change in apathy syndrome in comparison to the placebo group (in words)", "setting": "[4]; [5]", "result": "dose-dependent and time-dependent change in apathy syndrome"}]}
